Laboratory results from patent publication US20130287807A1, “COMPOUNDS FOR TREATING SYMPTOMS ASSOCIATED WITH PARKINSON'S DISEASE” (priority 2008, published 2013).
“Also recorded” adds a separate entry of the source. Square brackets hold non-standard residues; d marks the D form. Ends that are not written are not given here. Tle = CC(C)(C)[C@H](N)C(=O)O

What was measured:
[1] = tested on: monoclonal antibody (DAEFRH-peptide-specific); assay: Inhibition assay (ELISA): mimotope peptides compete with plate-bound original epitope DAEFRH for recognition by the monoclonal antibody; format: binding, Mice; parameters: key to inhibition (s/m/—): s: strong inhibition; m: moderate inhibition; —: -: no inhibition; conditions: for inhibition of binding of the monoclonal antibody to the original epitope: text to FIGS. 2-9; for inhibition (s/m/—): peptide lists of Example 4; for Inhibitory capacity of mimotopes: summary Tables 1 and 2 (Examples 2, 3)
Text: Mice are vaccinated with the 6mer peptide DAEFRH (natural N-terminal Aβ42 sequence) linked to the protein bovine serum albumin BSA (to make use of the hapten-carrier-effect), emulsified in CFA (first injection) and IFA (booster injections). DAEFRH-peptide-specific, antibody-producing hybridomas are detected by ELISA (DAEFRH-peptide-coated ELISA plates).
FIGS. 2 and 3 describe the results of inhibition assays performed with mimotope peptides included in and obtained from the 5 libraries (as described in WO 2004/062556). The mimotope peptides compete with the original epitope for recognition by the monoclonal antibody. Original epitope and mimotope peptides contain an additional C at the C-terminus for coupling to a protein carrier (if desired).
(§1) After blocking with PBS/BSA 1% (200 μl/well, 12 h, 4° C.), the plates are washed 3× times with PBS/Tween. Then, biotinylated monoclonal antibody (1:2000, 50 μl/well) and peptides (50 μl/well) at 50, 5, 0.5, 0.05, 0.005, and 0.0005 μg/ml are added for 20 min. at 37° C. The plates are washed 3× times with PBS/Tween and are incubated with horseradish peroxidase (HRP)-labeled streptavidin (100 μl/well, 30 min, RT). The plates are washed 5× times with PBS/Tween and are incubated with ABTS+H2O2(0.1% w/v, 10 to 45 min) and the reaction is stopped with citric acid followed by photometric evaluation (wavelength 405 nm).
as §1, with “different concentrations” for “50, 5, 0.5, 0.05, 0.005, and 0.0005 μg/ml”, “ABTS+H2O2 (0.1%” for “ABTS+H2O2(0.1%”
as §1, with “different concentrations” for “50, 5, 0.5, 0.05, 0.005, and 0.0005 μg/ml”

[2] = tested on: monoclonal antibody MV-001; assay: In vitro binding assay (ELISA), BSA-coupled peptides, parental antibody MV-001; parameters: species or system C57/B16 mice; conditions: Table 1C; peptide-BSA on plate, compared to original epitope
Description: Peptides derived from Phage Display as well as variants thereof were coupled to BSA and bound to ELISA plates (1 μM; as indicated in the respective figures) and subsequently incubated with the monoclonal antibody that was used for the screening procedure to analyse binding capacity of identified peptides.
Legend to Table 1C: the binding capacity is coded by the following binding code: 1:X describes the dilution factor of the parental AB

[3] = competition ELISA, plate-bound DAEFRH-C-BSA

| inhibition of binding of the monoclonal antibody to the original epitope [1, 3] | Binding Capacity [2] | Molecule | other results |
| --- | --- | --- | --- |
| strongly block epitope recognition |  | SAEFRTQ [Peptide 4015] | inhibition (s/m/—) [1]: s |
| moderately inhibit |  | GAEFRFT [Peptide 4014] | inhibition (s/m/—) [1]: m |
|  | 3 (strong binding :>20000) | LHIPFRHC [p4726] |  |
| block epitope recognition |  | CC[C@H](C)[C@H](NC(=O)[C@H](CCCNC(=N)N)NC(=O)[C@H](CC(C)C)NC(=O)[C@H](CCC(=O)O)NC(=O)[C@H](CCCCN)NC(=O)[C@@H](N)CC(=O)O)C(=O)N[C@@H](CS)C(=O)O [Peptide 3001, DKELRI] | Inhibitory capacity of mimotopes [1]: strong |
|  | 3 (strong binding :>20000) | NELRHSTC [p4701] |  |
|  | 2 (medium binding :4000-20000) | ATFRHSTC [p4735] |  |
| not inhibitory |  | DISFRG (DISFRGC) [Peptide 3010] | Inhibitory capacity of mimotopes [1]: none |
| not able to inhibit |  | WHWSWR (WHWSWRC) [Peptide 4004] | Inhibitory capacity of mimotopes [1]: none |
| moderately inhibit |  | DNEFRSP [Peptide 4012] | inhibition (s/m/—) [1]: s |
|  | 2 (medium binding :4000-20000) | TGLMFKHC [p4736] |  |
|  | 2 (medium binding :4000-20000) | SAMRHSLC [p4732] |  |
|  | 2 (medium binding :4000-20000) | MLPFRHGC [p4731] |  |
| not inhibitory |  | DKE(tBuGly)R (DKE[Tle]R) [Peptide 4061] | inhibition (s/m/—) [1]: — |
| not able to inhibit |  | YREFFI (YREFFIC) [Peptide 3003] | Inhibitory capacity of mimotopes [1]: none |
|  | 2 (medium binding :4000-20000) | YSMRHDAC [p4705] |  |
| block epitope recognition |  | C[C@@H](O)[C@H](NC(=O)[C@H](CCCNC(=N)N)NC(=O)[C@H](Cc1ccccc1)NC(=O)[C@H](CCC(=O)O)NC(=O)[C@H](Cc1c[nH]c2ccccc12)NC(=O)[C@@H](N)CO)C(=O)N[C@@H](CS)C(=O)O [Peptide 4002, SWEFRT] | IC50 (inhibition of monoclonal antibody recognition of DAEFRH) ([1]; competition ELISA, plate-bound DAEFRH-C-BSA, biotinylated mAb 1:2000): less than 0.4 μg/ml; Inhibitory capacity of mimotopes [1]: strong |
|  | 2 (medium binding :4000-20000) | IGFRHDSC [p4742] |  |
|  | 2 (medium binding :4000-20000) | DTYFPRSC [p4703] |  |
|  | 1 (weak binding :<4000) | TPLMFWHC [p4733] |  |
| can successfully compete |  | DAEFRH (DAEFRHC) [Peptide 1737, reference compound] |  |

| inhibition of binding of the monoclonal antibody to the original epitope [1, 3] | Binding Capacity [2] | Molecule | other results |
| --- | --- | --- | --- |
|  | 3 (strong binding :>20000) | EFLRHTLC [p4722] |  |
| block epitope recognition |  | CC[C@H](C)[C@H](NC(=O)[C@H](CCCCN)NC(=O)[C@H](CC(C)C)NC(=O)[C@H](CCC(=O)O)NC(=O)[C@H](CCCNC(=N)N)NC(=O)[C@@H](N)CC(=O)O)C(=O)N[C@@H](CS)C(=O)O [Peptide 1237, DRELKI] | Inhibitory capacity of mimotopes [1]: weak |
|  | 3 (strong binding :>20000) | NSSELRHC [p4752] |  |
|  | 1 (weak binding :<4000) | QELKRYYC [p4724] |  |
|  | 2 (medium binding :4000-20000) | ATFRHSPC [p4716] |  |
| hardly inhibitory |  | KKELRI (KKELRIC) [Peptide 1234] | Inhibitory capacity of mimotopes [1]: none |
| block epitope recognition |  | CC[C@H](C)[C@H](NC(=O)[C@H](CCCCN)NC(=O)[C@H](CC(C)C)NC(=O)[C@H](CCC(=O)O)NC(=O)[C@H](CCCCN)NC(=O)[C@@H](N)CC(=O)O)C(=O)N[C@@H](CS)C(=O)O [Peptide 1236, DKELKI] | Inhibitory capacity of mimotopes [1]: weak |
|  | 2 (medium binding :4000-20000) | TYFSHSLC [p4718] |  |
| not inhibitory |  | DIGWRG (DIGWRGC) [Peptide 3011] | Inhibitory capacity of mimotopes [1]: none |
|  | 3 (strong binding :>20000) | SQSYFKHC [p4755] |  |
|  | 3 (strong binding :>20000) | GEMRHQPC [p4702] |  |
| strongly block epitope recognition |  | SAEFRAT [Peptide 4016] | inhibition (s/m/—) [1]: s |
|  | 2 (medium binding :4000-20000) | AEFMHSVC [p4739] |  |
| not inhibitory |  | VPTSALA [Peptide 4037] | inhibition (s/m/—) [1]: — |
|  | 2 (medium binding :4000-20000) | AANYFPRC [p4706] |  |
|  | 1 (weak binding :<4000) | TSTEMWHC [p4754] |  |
|  | 2 (medium binding :4000-20000) | LQFKHSTC [p4734] |  |
|  | 2 (medium binding :4000-20000) | APMYFPHC [p4717] |  |
|  | 2 (medium binding :4000-20000) | AYFPHTSC [p4751] |  |
|  | 1 (weak binding :<4000) | QPNLFYHC [p4713] |  |

| inhibition of binding of the monoclonal antibody to the original epitope [1, 3] | Binding Capacity [2] | Molecule | other results |
| --- | --- | --- | --- |
|  | 3 (strong binding :>20000) | THMEFRRC [p4745] |  |
|  | 3 (strong binding :>20000) | SNFRHSVC [p4749] |  |
|  | 3 (strong binding :>20000) | SAGSFRHC [p4710] |  |
|  | 3 (strong binding :>20000) | SNSEFRRC [p4743] |  |
|  | 3 (strong binding :>20000) | APIQFRHC [p4750] |  |
|  | 2 (medium binding :4000-20000) | NELFKHFC [p4727] |  |
|  | 3 (strong binding :>20000) | SELRHSTC [p4744] |  |
|  | 3 (strong binding :>20000) | QLFKHSPC [p4747] |  |
|  | 2 (medium binding :4000-20000) | QVMRHHAC [p4711] |  |
|  | 2 (medium binding :4000-20000) | VELRHSRC [p4704] |  |
|  | 2 (medium binding :4000-20000) | SSSFFPRC [p4708] |  |
|  | 3 (strong binding :>20000) | ATPLFRHC [p4723] |  |
|  | 1 (weak binding :<4000) | EDWFFWHC [p4709] |  |
|  | 2 (medium binding :4000-20000) | AEFSHWHC [p4737] |  |
|  | 1 (weak binding :<4000) | HEPLFSHC [p4719] |  |
|  | 2 (medium binding :4000-20000) | SLMRHSSC [p4721] |  |
|  | 3 (strong binding :>20000) | SEFSHSSC [p4712] |  |
|  | 2 (medium binding :4000-20000) | SQYFPRPC [p4729] |  |

| Molecule | inhibition of binding of the monoclonal antibody to the original epitope [1, 3] | Binding Capacity [2] | other results |
| --- | --- | --- | --- |
| YREFRI (YREFRIC) [Peptide 3004] | block epitope recognition; also recorded: only inhibitory at a high concentration (50 μg/ml) |  | Inhibitory capacity of mimotopes [1]: weak |
| C[C@H](NC(=O)[C@H](CC(=O)O)NC(=O)[C@H](CCCNC(=N)N)NC(=O)[C@H](Cc1ccccc1)NC(=O)[C@H](CCC(=O)O)NC(=O)[C@H](Cc1c[nH]c2ccccc12)NC(=O)[C@@H](N)CC(=O)O)C(=O)N[C@@H](CS)C(=O)O [Peptide 1241, DWEFRDA] | block epitope recognition |  | Inhibitory capacity of mimotopes [1]: strong |
